The record followed here is patent US20070258926A1, “Composition containing retinoic acid nanoparticles coated with inorganic salt of polyvalent metal” (LTT BIO-PHARMA CO., LTD., priority 2003, published 2007).

This experiment relates to hyaluronic acid. Conditions: topical application, mice.

Each structure is given as a SMILES string.

Protocol: The dorsal skin of mice (ddy strain/5 week old/male) was clipped with electric clippers and a Vaseline based retinoic acid preparation (containing 0.1% retinoic acid) was applied to the clipped area 10 mg/cm^2 per day for 4 consecutive days.

As to `CC1=C(/C=C/C(C)=C/C=C/C(C)=C/C(=O)O)C(C)(C)CCC1` [retinoic acid, all-trans retinoic acid], the “colloidal iron staining of basal cells and prickle cells of the epithelium (production of hyaluronic acid)” value is “less significant”.
